Assay results as given in PMC8767159, “Multiparameter Optimization of Trypanocidal Cruzain Inhibitors With In Vivo Activity and Favorable Pharmacokinetics” (Frontiers in Pharmacology, 2022).

Columns and labels:
[1] = biological target: T1, cruzain (Trypanosoma cruzi, UniProt P25779); experiment: Cruzain enzyme inhibition assay (cleavage of fluorogenic substrate Z-FR-AMC); assay type: biochemical; details: for inhibition at 100 µM: compound 100 µM, mean of three measures
T1 construct: made in house; host or cells: Escherichia coli (strain M15)
Method: Pro-cruzain truncated at the C-terminus was expressed and purified using a previously described protocol ([Ferreira et al., 2019]). Escherichia coli (strain M15) cultures were grown overnight at 37°C and 200 rpm in Luria Bertani (LB) medium supplemented with ampicillin (100 μg/ml) and kanamycin (50 μg/ml). Next, the cultures were diluted 10-fold in fresh LB medium supplemented with 0.5 M NaCl, 0.2% glucose, 1 mM betaine, 0.5 M sorbitol, 100 μg/ml ampicillin, and 50 μg/ml kanamycin and incubated at 37°C and 200 rpm. At an optical density (OD600) of 0.9, the cultures were incubated at 47°C for 20 min to promote the expression of chaperones. Then, the expression of cruzain was induced by adding isopropyl β-D-thiogalactopyranoside (IPTG) to a final concentration of 0.2 mM, which was followed by overnight incubation of the cultures at 20°C and 200 rpm. Next, the cultures were centrifuged (5,000 rpm, 30 min, 4°C), and the cells were suspended in 50 ml of lysis buffer (300 mM NaCl, 50 mM Tris-HCl, and 1.6 mg/ml lysozyme, pH 8.0) per liter of culture and lysed by sonication (12 cycles of 30 s). This cell lysate was centrifuged (9,000 rpm, 30 min, 4°C), and the supernatant was collected. Cruzain was precipitated by incubation with 35% ammonium sulfate (2 h), and this suspension was centrifuged at 9,000 rpm for 30 min at 4°C. The precipitated cruzain was resuspended in lysis buffer, and the sample was dialyzed to eliminate ammonium sulfate. The soluble fraction of the dialysate was loaded on a Ni−NTA column (Qiagen, Hilden, Germany), and the contaminants were washed using washing buffer (300 mM NaCl, 50 mM Tris-HCl, and 10 mM imidazole, pH 8.0). Cruzain was eluted by applying an increasing imidazole gradient: 25, 50, 75, 100, and 250 mM. The fractions containing cruzain were pooled together and dialyzed against 1.5 L of 0.1 M acetate buffer, pH 5.5, and then concentrated to 0.5 mg/ml. Pro-cruzain was activated by incubation with activation buffer (100 mM sodium acetate, pH 5.5, 10 mM EDTA, 5 mM DTT, and 1 M NaCl) at 37°C. […] After activation, the enzyme was diluted 20-fold in binding buffer (20 mM sodium phosphate and 150 mM NaCl, pH 7.2) and added to thiopropyl Sepharose 6B resin (GE Healthcare Life Sciences, Pittsburgh, PA). After overnight incubation at 4°C, the resin was loaded on a column, and cruzain was eluted with binding buffer supplemented with 20 mM DTT. Fractions containing cruzain were pooled together and stored in 0.1 M sodium acetate, pH 5.5, at −80°C.
Cruzain activity was followed by monitoring the cleavage of the fluorogenic substrate Z-Phe-Arg-aminomethyl coumarin (Z-FR-AMC), as previously described ([Ferreira et al., 2019]), using 96-well flat-bottom black plates and wavelengths of 355 nm for excitation and 460 nm for emission. All cruzain assays were performed in 0.1 M sodium acetate buffer with 5 mM dithiothreitol (DTT) and 0.01% Triton X-100, pH 5.5. […] The cleavage of the substrate was monitored for 5 min, and the activity was calculated based on the initial reaction rates compared with the rate of a DMSO control at 30°C. The IC50 values were independently calculated by considering the rate measurements for at least six inhibitor concentrations, each evaluated in triplicate. To determine the mechanism of cruzain inhibition, eight concentrations of the substrate Z-FR-AMC and four concentrations of the inhibitor were employed, each in triplicate. Kinetic parameters were determined using the SigmaPlot (Systat Software Inc., Erkrath, Germany) enzyme kinetics module. Compounds were tested in two or three independent experiments. All enzyme assays were performed using varying Triton X-100 concentrations (0, 0.01, and 0.1%) ([Ferreira et al., 2009]). Compound concentrations were 100 μM in the single-dose percentage inhibition assays.

[2] = In vitro metabolic stability in human liver microsomes; assay type: in vitro ADME; details: for CLint (L/h/kg) Human: Table S5; for CLint_u (L/h/kg) Human: Table S5, CLint/fu
Method: (§1) Isolated mouse (BD Gentest, Bedford, MA) and human liver microsomes (XenoTech, Kansas City, KS) ([Plant, 2004]) were added at a final concentration of 0.25 mg/ml to a solution containing 40 mM dibasic potassium phosphate and 10 mM monobasic potassium phosphate. Stock solutions of compounds at 5 mM were prepared in 100% DMSO. A 50:50 quenching solution of acetonitrile (ACN) and methanol (MeOH) was prepared. An NADPH solution was prepared at 10 mM. The preparations containing the microsomes were added to each well of the incubation plate (450 µl), which was then heated to 37°C for 10 min. The compounds were added to the respective wells of the test plate (2 µl). Then, 300 µl of the microsome preparation was added to each well of the test plate. The test plate was heated under gentle rotation for 5 min at 37°C. Next, 90 µl of the mixture contained in the test plate was added to the incubation plate, making a final volume of 540 µl. Samples were collected at the following incubation times: 0, 5, 10, 15, 20, and 30 min. To the 0 min sample plate, quenching solution (180 µl), NADPH (6 µl), and the incubation plate mixture (54 µl) were added to each well. The sample plate was then sealed, homogenized, and stored at 4°C. Then, 54 µl of the NADPH solution was added to the incubation plate, which was homogenized. Before the collection of each sample at the established times, 45 µl of the quenching solution was added to each well of the corresponding sample plates. After reaching the incubation times, 60 µl of the mixture contained in the incubation plate was added to the corresponding sample plates. The sample plates were then sealed and stored at 4°C. After the collection of the last sample (30 min), all sample plates were centrifuged at 3,800 rpm for 30 min. The supernatant from each well was collected and transferred to clean plates for mass spectrometry. Five to 10 µl of each sample was injected into an AB Sciex Triple Quad 5500 LC-MS/MS instrument.
(§2) For the biotransformation experiments and analysis of metabolites in microsomes, an Ultra-High-Pressure Liquid Chromatography instrument (UHPLC, Thermo Accela, Waltham, MA) ([Spaggiari et al., 2014]) connected to an automatic sample injector and a 1250 series pump was used. The UHPLC system was connected to a Thermo Fisher (Waltham, MA) LTQ Orbitrap mass spectrometer. For all other analyses, an AB Sciex Triple Quad 5500 coupled to a UHPLC equipped with a UV 1290 diode detector (Agilent Technologies, Santa Clara, CA) and a CTC PAL self-collecting system (LEAP Technologies, Carrboro, NC) was used. Q1 MS positive ion mode (300–500 Da) was used to detect the ions of the parent compounds. The UV detector was operated in spectral mode (250–280 nm). A Hypersil Gold C18 (2.1 mm × 100 mm, 1.9 µm, Thermo Fisher) HPLC column was used. The mobile phases were solvent A (0.1% formic acid in water) and solvent B (0.1% formic acid in ACN). The flow was adjusted to 0.55 ml/min, and the injection volume was adjusted to […]. The gradient started with 1% solvent B for 0.4 min, reached 40% (solvent B) in 2.3 min and 95% (solvent B) in 0.67 min, was maintained for 0.5 min, and returned to the initial condition of 1%. This condition was maintained for 1 min before injection of the next sample. The peak area ratio (peak area of the test compounds/peak area of the control compounds) was converted to the percentage of remaining compound, with the 0 min time point ratio set to 100%. T½ and CLint were calculated from the percentage of remaining compound versus the incubation time. From the resulting function, the slope (k) was determined. The equations T1/2 (min) = ln(2)/k and CLint in vitro (μL/min/mg) = k*1000/0.25 were used to determine T½ and CLint.

[3] = In vitro metabolic stability in mouse liver microsomes; assay type: in vitro ADME; details: for CLint_u (L/h/kg) Mouse: Table S5, CLint/fu; for CLint (L/h/kg) Mouse: Table S5
Method: as §1, §2

[4] = Fraction unbound by equilibrium dialysis; assay type: in vitro ADME; details: Table S5; fraction unbound
Method: The fraction unbound (fu) ([Masimirembwa et al., 2003]) of the test compounds was determined after incubation with different media, namely, plasma, microsomes, and buffer with 10% FCS. Equilibrium dialysis was performed in a 96-well plate (HT-Dialysis, Gales Ferry, CT) in which each well was divided by a semipermeable membrane (12–14 kDa cutoff). The test compounds diluted in either plasma, microsome suspension, or buffer were added to one side of the membrane. Potassium phosphate buffer (50 mM, pH 7.4) was added to the other side of the membrane. A standard curve was used to calculate the compound concentration (fu) on each side of the membrane. Stock solutions of each compound were prepared in 100% DMSO to obtain a final concentration of 1 mM. The following compound concentrations were used: 1, 2, 20, 200, 2,000 and 5,000 nM. To 500 μl of medium, 0.5 μl of the compound stock solution was added, and this was applied to one side of the well. Each compound was evaluated in triplicate. Next, the plate was assembled, sealed, and incubated at 37°C under rotation (150 rpm) for 4 h. After the incubation period, the plates were subjected to LC-MS/MS.

T1 sequence (P25779 123-337 limits assumed): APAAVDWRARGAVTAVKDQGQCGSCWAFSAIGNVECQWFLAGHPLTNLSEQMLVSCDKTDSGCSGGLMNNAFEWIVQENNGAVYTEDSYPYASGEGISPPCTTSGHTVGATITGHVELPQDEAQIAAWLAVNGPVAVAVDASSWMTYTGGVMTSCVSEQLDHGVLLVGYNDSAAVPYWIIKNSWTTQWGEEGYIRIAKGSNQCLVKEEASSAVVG

inhibition at 100 µM [1] [%] | CLint (L/h/kg) Human [2] [L/h/kg] | CLint_u (L/h/kg) Human [2] | CLint_u (L/h/kg) Mouse [3] | fu [4] | CLint (L/h/kg) Mouse [3] [L/h/kg] | IC50 ([1]; 1.5 nM cruzain, 5.0 µM Z-FR-AMC, mean ± SD of 2–3 assays, read-out: IC50 (µM) against cruzain) [µM] | Compound
62 |  |  |  |  |  |  | COc1cc(OCC(=O)NCCc2nc3ccccc3[nH]2)ccc1[N+](=O)[O-] [Compound 16]
 | 19.50 | 22.70 L/h/kg | 419.09 L/h/kg | 0.86 |  |  | O=C(COc1ccccc1Cl)NCCc1nc2ccccc2[nH]1 [Compound 40]
 | 3.28 | 3.28 L/h/kg | 86.20 L/h/kg | 1.00 | 86.20 |  | O=C(CCOc1ccccc1)NCCc1nc2ccccc2[nH]1 [Compound 49]
 | 35.40 | 65.56 L/h/kg | 1,144.44 L/h/kg | 0.54 | 618.00 |  | O=C(COc1ccc2ccccc2c1)NCCc1nc2ccccc2o1 [Compound 51]
92 |  |  |  |  |  | 8.3 ± 2.1 | COC(=O)c1cccc2cc(OCC(=O)NCCc3nc4ccccc4[nH]3)ccc12 [Compound 14]
 | 72.40 | 404.47 L/h/kg | 2,793.30 L/h/kg | 0.18 | 500.00 |  | COc1ccc2[nH]c(CCNC(=O)COc3ccc4ccccc4c3Br)nc2c1 [Compound 53]
 | 37.30 | 71.18 L/h/kg | 1,276.72 L/h/kg | 0.52 | 669.00 |  | O=Cc1c(OCC(=O)NCCc2nc3ccccc3[nH]2)ccc2ccccc12 [Compound 45]
 | 9.38 | 9.97 L/h/kg | 325.19 L/h/kg | 0.94 | 306.00 |  | CC(=O)NCCc1nc2ccccc2n1CCOc1ccccc1Br [Compound 57]
 | 4.75 | 4.90 L/h/kg | 98.14 L/h/kg | 0.97 | 95.10 |  | CC(=O)NCCc1nc2ccccc2n1CCOCc1ccccc1 [Compound 56]
 | 1.78 | 1.94 L/h/kg | 39.06 L/h/kg | 0.91 | 35.90 |  | CC(=O)NCCc1nc2ccccc2n1CCOc1ccccc1 [Compound 55]
 | 23.60 | 38.63 L/h/kg | 1,292.96 L/h/kg | 0.61 | 790.00 |  | Cc1ccccc1OCC(=O)NCCc1c[nH]c2ccccc12 [Compound 50]
 | 155.00 | 194.48 L/h/kg | 608.53 L/h/kg | 0.79 | 485.00 |  | Cc1cc(C)c(C#N)c(SCC(=O)NCCc2c[nH]c3ccccc23)n1 [Compound 60]
 | 24.70 | 32.04 L/h/kg | 981.84 L/h/kg | 0.77 | 757.00 |  | O=C(COc1ccc2ccccc2c1CO)NCCc1nc2ccccc2[nH]1 [Compound 46]
 | 157.00 | 3,634.26 L/h/kg |  | 0.04 | 355.00 |  | O=C(COc1ccc2ccccc2c1Br)NCCc1nc2ccccc2n1CCC(=O)c1cccs1 [Compound 61]
 | 125.00 | 5,186.72 L/h/kg |  | 0.02 | 331.00 |  | COc1cccc(C(=O)CCn2c(CCNC(=O)COc3ccc4ccccc4c3Br)nc3ccccc32)c1 [Compound 62]
 | 61.50 | 64.36 L/h/kg | 453.17 L/h/kg | 0.96 | 433.00 |  | Cc1cc(C)c(C#N)c(SCC(=O)NCCc2nc3ccccc3[nH]2)n1 [Compound 59]
